Each structure is given as a SMILES string.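 Step 1: Grow cells in 96-well plates. Step 2: Expose to compound for 48 hours at 5 concentrations. Step 3: Interpolate endpoints linearly; if unreached, use highest concentration. GI50 marks 50% less growth.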 Calls of active or inactive are those of the source. Cut-off read from the data, not from the text of the source: active = GI50 up to about 1.1 µM and inactive = higher.

Among the test systems are 786-0; HCC 2998; HCT-116; HOP-92; HT-29; IGROV-1; K562; KM12; LOX IMVI; NCI-H522; OVCAR-8; RPMI-8226; SF-295; SF-539; SN12C; SNB-75; UACC-62; UO-31; MCF7.
Common to all, as to assay: NCI anticancer screen, dose series, 48 h

In the case of `CCOc1ccc(C(CN2CCOCC2)C(C)=O)cc1OC` (stereo unspecified), the GI50 is 3.53 µM (inactive) with 786-0; 18.4 µM (inactive) in the assay with HCC 2998; 20.4 µM (inactive) with HCT-116; 18.9 µM (inactive) with HOP-92; 19.6 µM (inactive) in the assay on HT-29; 25.2 µM (inactive) in the assay on IGROV-1. Moreover, the GI50 is 3.1 µM (inactive) in the assay with K562; 15.3 µM (inactive) in the assay on KM12; 17 µM (inactive) in the assay with LOX IMVI; 1.22 µM (inactive) in the assay with NCI-H522; 20.1 µM (inactive) in the assay with OVCAR-8; 11.5 µM (inactive) with RPMI-8226. The GI50 was 39.6 µM (inactive) in the assay with SF-295; 16 µM (inactive) in the assay with SF-539; 17.4 µM (inactive) in the assay with SN12C; 18.7 µM (inactive) in the assay on SNB-75; 17.3 µM (inactive) in the assay on UACC-62; 14.6 µM (inactive) with UO-31.
As for `CCCCCCC(O)CC[C@H]1CCC[C@@H](C)N1` (stereo partly specified), the GI50 in the assay with 786-0 was > 10 µM (inactive); in the assay on HCC 2998 it was > 19.9 µM (inactive); in the assay with HCT-116, > 100 µM (inactive); in the assay with HOP-92, > 100 µM (inactive); with HT-29, 29 µM (inactive); with IGROV-1, > 100 µM (inactive). In addition, the GI50 with K562 was > 100 µM (inactive); in the assay with KM12, > 10 µM (inactive); with LOX IMVI, > 100 µM (inactive); in the assay on NCI-H522 it was > 100 µM (inactive); with OVCAR-8, > 10 µM (inactive); in the assay on RPMI-8226, > 100 µM (inactive). Further, the GI50 with SF-295 is > 31.6 µM (inactive); with SF-539, > 100 µM (inactive); in the assay on SN12C, > 100 µM (inactive); with SNB-75, > 31.6 µM (inactive); in the assay with UACC-62, 72.6 µM (inactive); in the assay on UO-31, > 84.3 µM (inactive).
On to `Cc1cccc(NC(=O)c2cc3cc(/N=N/c4ccccc4Cl)ccc3oc2=O)c1`, for which the GI50 is 26.9 µM (inactive) in the assay with 786-0; 26.1 µM (inactive) in the assay on HCC 2998; 23.7 µM (inactive) with HCT-116; 33.3 µM (inactive) in the assay with HOP-92; 38.2 µM (inactive) in the assay with HT-29; 32.1 µM (inactive) in the assay on IGROV-1. Moreover, the GI50 was 61 µM (inactive) in the assay with K562; 15.4 µM (inactive) in the assay with KM12; 10.4 µM (inactive) in the assay with LOX IMVI; 22.3 µM (inactive) in the assay on NCI-H522; 27 µM (inactive) in the assay with OVCAR-8; 19.9 µM (inactive) with RPMI-8226. For the same molecule, the GI50 in the assay on SF-295 is 40 µM (inactive); with SF-539, 30.3 µM (inactive); with SN12C, 30.2 µM (inactive); with SNB-75 it was 60.8 µM (inactive); with UACC-62 it was 16.3 µM (inactive); in the assay on UO-31 it was 13.3 µM (inactive).
As for `O=S1(=O)OCCOS(=O)(=O)C1Cc1ccccc1`, the GI50 in the assay with 786-0 is 32.5 µM (inactive); with HCC 2998, 20 µM (inactive); with HCT-116, 48.4 µM (inactive); in the assay with HOP-92, 70.6 µM (inactive); with HT-29 it was 63.5 µM (inactive); in the assay with IGROV-1, 28.8 µM (inactive). For the same molecule, the GI50 was 61 µM (inactive) with K562; > 100 µM (inactive) with KM12; 35.7 µM (inactive) in the assay on LOX IMVI; 45.2 µM (inactive) in the assay with NCI-H522; 70.1 µM (inactive) in the assay on OVCAR-8; 18.7 µM (inactive) in the assay on RPMI-8226. The GI50 in the assay with SF-295 is 53.8 µM (inactive); with SF-539, 26.5 µM (inactive); in the assay with SN12C it was 46.1 µM (inactive); in the assay with SNB-75, 47.3 µM (inactive); in the assay on UACC-62, 40.8 µM (inactive); with UO-31, 57.8 µM (inactive).
`CC1=C(C(=O)OCCc2ccc([N+](=O)[O-])cc2)C(c2cccc([N+](=O)[O-])c2)C(C(=O)OC(C)C)=C(C)N1` (stereo unspecified): the GI50 in the assay with 786-0 is 6.49 µM (inactive); in the assay with HCC 2998, 75.9 µM (inactive); in the assay with HCT-116, 3.69 µM (inactive); in the assay on HT-29, 4.94 µM (inactive); in the assay with IGROV-1, 9.53 µM (inactive); with K562, 3.52 µM (inactive). Further, the GI50 with KM12 is 6.05 µM (inactive); with LOX IMVI it was 4.72 µM (inactive); with MCF7, 3.72 µM (inactive); in the assay on NCI-H522, 1.87 µM (inactive); in the assay on OVCAR-8 it was 4.88 µM (inactive); in the assay with RPMI-8226, 2.88 µM (inactive). Further, the GI50 in the assay on SF-295 is 4.19 µM (inactive); in the assay on SF-539 it was > 100 µM (inactive); in the assay on SN12C it was 11.8 µM (inactive); in the assay with SNB-75, 5.69 µM (inactive); in the assay with UACC-62, 4.48 µM (inactive); with UO-31, 5.43 µM (inactive).
With `N#C/C(=C\c1ccccc1Br)C(=O)c1ccccc1`, the GI50 was 15.8 µM (inactive) in the assay with 786-0; > 95.7 µM (inactive) in the assay with HCC 2998; 2.81 µM (inactive) with HCT-116; > 100 µM (inactive) with HOP-92; > 57.7 µM (inactive) in the assay on HT-29; > 10 µM (inactive) in the assay with IGROV-1. Further, the GI50 in the assay with K562 was 0.55 µM (active); in the assay on KM12, > 54.3 µM (inactive); in the assay with LOX IMVI, 11.8 µM (inactive); with NCI-H522, 58.2 µM (inactive); in the assay on OVCAR-8, 11.1 µM (inactive); in the assay with RPMI-8226, 9.86 µM (inactive). Besides, the GI50 in the assay on SF-295 was 31 µM (inactive); in the assay on SF-539, > 91.2 µM (inactive); with SN12C, > 43.3 µM (inactive); in the assay with UACC-62, 29.5 µM (inactive); in the assay with UO-31, > 38.5 µM (inactive).
With `COC(=O)C1CCc2nnc(-c3ccccc3)n21` (stereo unspecified), the GI50 in the assay on 786-0, with HCC 2998, with HCT-116, with HOP-92, in the assay on HT-29 and with IGROV-1 was > 100 µM (inactive) in each case. Besides, the GI50 in the assay with K562, in the assay with KM12, with LOX IMVI, in the assay with NCI-H522, in the assay on OVCAR-8 and in the assay with RPMI-8226 was > 100 µM (inactive) throughout. The GI50 in the assay on SF-295, in the assay with SF-539, with SN12C, in the assay on SNB-75, in the assay on UACC-62 and with UO-31 was > 100 µM (inactive) throughout.
As to `CN1c2ccccc2N(C(=O)c2ccc(Cl)cc2)C(CC(=O)O)c2cccn21` (stereo unspecified), the GI50 in the assay on 786-0, in the assay on HCC 2998, in the assay on HOP-92, in the assay with HT-29, in the assay with IGROV-1 and in the assay with K562 was > 100 µM (inactive) each time. The GI50 in the assay on KM12, in the assay with LOX IMVI, in the assay on NCI-H522, in the assay on OVCAR-8, in the assay on RPMI-8226 and in the assay with SF-295 was > 100 µM (inactive) each time. Moreover, the GI50 in the assay on SF-539, with SN12C, in the assay with SNB-75, in the assay on UACC-62 and with UO-31 was > 100 µM (inactive) each time.
For `CCC(=O)C(C)C(=O)C(=O)C(=O)OC` (stereo unspecified), the GI50 is > 100 µM (inactive) in the assay with 786-0; > 100 µM (inactive) in the assay on HCC 2998; > 62.8 µM (inactive) in the assay on HCT-116; > 100 µM (inactive) with HOP-92; 97.1 µM (inactive) in the assay on HT-29; > 100 µM (inactive) in the assay with IGROV-1. The GI50 with K562 was > 66.1 µM (inactive); in the assay with KM12, > 100 µM (inactive); in the assay on LOX IMVI, > 80.7 µM (inactive); with NCI-H522 it was > 100 µM (inactive); with OVCAR-8, > 100 µM (inactive); with RPMI-8226, > 100 µM (inactive). Besides, the GI50 in the assay with SF-295, in the assay on SF-539, with SN12C, with SNB-75, with UACC-62 and in the assay with UO-31 was > 100 µM (inactive) in each case.
For the molecule `CCCOc1ccc(/C(Cl)=C(\C=O)c2ccc(OC)c(OC)c2)cc1OCCC`, the GI50 in the assay on 786-0 is 20.8 µM (inactive); with HCC 2998 it was 3.53 µM (inactive); in the assay on HCT-116, 2.64 µM (inactive); in the assay on HOP-92 it was 18 µM (inactive); with HT-29, 5.2 µM (inactive); with IGROV-1 it was 27.9 µM (inactive). The GI50 with K562 is 6.1 µM (inactive); in the assay on KM12 it was 8.61 µM (inactive); in the assay on LOX IMVI, 10.5 µM (inactive); in the assay with NCI-H522, 2 µM (inactive); with OVCAR-8, 11.9 µM (inactive); in the assay with RPMI-8226, 2.7 µM (inactive). For the same molecule, the GI50 with SF-295 is 13.7 µM (inactive); in the assay on SF-539, 14.1 µM (inactive); in the assay with SN12C it was 9.89 µM (inactive); in the assay with SNB-75 it was 11.9 µM (inactive); in the assay with UACC-62 it was 3.52 µM (inactive); with UO-31 it was 17.6 µM (inactive).
As to `Brc1ccc2ns[s+]c2c1`, the GI50 with 786-0 is 98.2 µM (inactive); in the assay with HCC 2998, 5.25 µM (inactive); in the assay on HCT-116, 2.7 µM (inactive); with HOP-92 it was 6.73 µM (inactive); with HT-29 it was 1.3 µM (inactive); in the assay on IGROV-1, 26.7 µM (inactive). For the same molecule, the GI50 in the assay on K562 is 0.321 µM (active); with KM12 it was 3.79 µM (inactive); in the assay on LOX IMVI it was 0.659 µM (active); with NCI-H522, 4.79 µM (inactive); with OVCAR-8 it was > 43.9 µM (inactive); in the assay on RPMI-8226, 4.71 µM (inactive). Besides, the GI50 is 4.46 µM (inactive) in the assay on SF-295; 4.29 µM (inactive) in the assay on SF-539; 14 µM (inactive) with SN12C; > 60 µM (inactive) in the assay on SNB-75; 0.446 µM (active) with UACC-62; 4.36 µM (inactive) in the assay on UO-31.

The values above are taken from ChEMBL document CHEMBL1201862, “PubChem BioAssay data set” (2004).
